Measured values reported in US9365583B2, “Substituted pyrazoles and uses thereof” (Genentech, Inc., priority 2013, dated 2016).

Target: T1, N-terminally GST-tagged DLK (catalytic domain amino acid 1-520) (Homo sapiens, UniProt Q12852)
T1 construct: N-terminally GST-tagged DLK (catalytic domain amino acid 1-520); purchased Carna Bioscience
T1 sequence (Q12852 1-520): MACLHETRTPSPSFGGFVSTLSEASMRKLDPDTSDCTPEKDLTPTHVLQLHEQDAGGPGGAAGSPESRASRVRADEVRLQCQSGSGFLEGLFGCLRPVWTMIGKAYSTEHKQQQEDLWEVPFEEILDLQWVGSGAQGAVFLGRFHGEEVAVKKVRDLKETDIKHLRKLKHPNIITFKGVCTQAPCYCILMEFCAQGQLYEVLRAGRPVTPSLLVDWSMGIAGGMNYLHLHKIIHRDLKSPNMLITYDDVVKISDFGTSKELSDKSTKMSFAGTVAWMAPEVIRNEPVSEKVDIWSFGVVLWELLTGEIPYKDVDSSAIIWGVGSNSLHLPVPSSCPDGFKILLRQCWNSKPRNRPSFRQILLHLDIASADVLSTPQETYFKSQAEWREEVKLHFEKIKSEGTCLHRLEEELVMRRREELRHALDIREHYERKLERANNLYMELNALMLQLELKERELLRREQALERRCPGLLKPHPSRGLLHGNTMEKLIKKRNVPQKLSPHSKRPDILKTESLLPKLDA
Assay: DLK TR-FRET inhibition assay
Type: biochemical
Settings: 5 nM GST-DLK, 40 nM HIS-MKK4 K131M substrate, 30 μM ATP, 60 minutes at ambient temperature
Procedure: DLK TR-FRET inhibition assay: DLK kinase reactions (20 μL) containing 5 nM N-terminally GST-tagged DLK (catalytic domain amino acid 1-520) (Carna Bioscience), 40 nM N-terminally HIS-tagged MKK4 K131M substrate, and 30 μM ATP in kinase reaction buffer (50 mM HEPES, pH 7.5, 0.01% Triton X-100, 0.01% Bovine γ-Globulins, 2 mM DTT, 10 mM MgCl2 and 1 mM EGTA), and testing compound 1:3 serial diluted starting at 20 uM were incubated at ambient temperature for 60 minutes in 384 well OptiPlate (Perkin Elmer). To quench kinase reactions and detect phosphorylated MKK4, 15 μL of TR-FRET antibody mixture containing 2 nM anti-phosphorylated MKK4 labeled with Europium cryptate (Cisbio) and 23 nM anti-HIS labeled with D2 (Cisbio) in detection buffer (25 mM Tris pH 7.5, 100 mM NaCl, 100 mM EDTA, 0.01% Tween-20, and 200 mM KF) was added to the reaction mixture. The detection mixture was incubated for 3 hours at ambient temperature and the TR-FRET was detected with an EnVision multilabel plate reader (Perkin-Elmer) using the LANCE/DELFIA Dual Enh label from Perkin-Elmer (excitation filter: UV2 (TRF) 320 and emission filters: APC 665 and Europium 615).

Row | SMILES | Ki
1 | CC(C)n1nc(-c2cnc(N)c(C(F)(F)F)c2)cc1[C@H]1[C@@H]2C[C@@H](N(C)CCS(C)(=O)=O)C[C@@H]21 [compound 7, 5-(1-isopropyl-5-((1R,3s,5S,6r)-3-(methyl(2-(methylsulfonyl)ethyl)amino)bicyclo[3.1.0]hexan-6-yl)-1H-pyrazol-3-yl)-3-(trifluoromethyl)pyridin-2-amine] | 4.63 nM
2 | CC(C)n1nc(-c2cnc(N)c(C(F)(F)F)c2)cc1[C@H]1[C@@H]2C[C@H](N(C)CCS(C)(=O)=O)C[C@@H]21 [compound 8, 5-(1-isopropyl-5-((1R,3r,5S,6r)-3-(methyl(2-(methylsulfonyl)ethyl)amino)bicyclo[3.1.0]hexan-6-yl)-1H-pyrdzol-3-yl)-3-(trifluoromethyl)pyridin-2-amine] | 3.36 nM
3 | CC(C)n1nc(-c2cnc(N)c(C(F)(F)F)c2)cc1[C@H]1[C@@H]2C[C@@H](N3CCS(=O)(=O)CC3)C[C@@H]21 [compound 9, 4-((1R,3s,5S,6r)-6-(3-(6-amino-5-(trifluoromethyl)pyridin-3-yl)-1-isopropyl-1H-pyrazol-5-yl)bicyclo[3.1.0]hexan-3-yl)thio-morpholine 1,1-dioxide] | 4 nM
4 | CC(C)n1nc(-c2cnc(N)c(C(F)(F)F)c2)cc1[C@H]1[C@@H]2C[C@H](N3CCS(=O)(=O)CC3)C[C@@H]21 [compound 10, 4-((1R,3r,5S,6r)-6-(3-(6-amino-5-(trifluoromethyl)pyridin-3-yl)-1-isopropyl-1H-pyrazol-5-yl)bicyclo[3.1.0]hexan-3-yl)thio-morpholine 1,1-dioxide] | 3.28 nM
5 | CC(C)n1nc(-c2cnc(N)c(OC(F)(F)F)c2)cc1[C@H]1[C@@H]2C[C@@H](N3CCOC[C@H]3C)C[C@@H]21 [compound 13, 5-(1-isopropyl-5-((1R,3s,5S,6R)-3-((R)-3-mcthylmorpholino)bicyclo[3.1.0]hexan-6-yl)-1H-pyrazol-3-yl)-3-(trifluoromethoxy) pyridin-2-amine] | 1.89 nM
6 | CCN1CCN([C@H]2C[C@@H]3[C@H](C2)[C@H]3c2cc(-c3cnc(N)c(OC(F)(F)F)c3)nn2C(C)C)CC1 [compound 14, 5-(5-((1R,3r,5S,6r)-3-(4-ethylpiperazin-1-yl)bicyclo[3.1.0]hexan-6-yl)-1-isopropyl-1H-pyrazol-3-yl)-3-(trifluoromethoxy) pyridin-2-amine] | 1.72 nM
7 | CCN1CCN([C@@H]2C[C@@H]3[C@H](C2)[C@H]3c2cc(-c3cnc(N)c(OC(F)(F)F)c3)nn2C(C)C)CC1 [compound 15, 5-(5-((1R,3s,5S,6r)-3-(4-ethylpiperazin-1-yl)bicyclo[3.1.0]hexan-6-yl)-1-isopropyl-1H-pyrazol-3-yl)-3-(trifluoromethoxy) pyridin-2-amine] | 3.58 nM
8 | CCN1CCN([C@H]2C[C@@H]3[C@H](C2)[C@H]3c2cc(-c3cnc(N)c(C(F)(F)F)c3)nn2C(C)C)CC1 [compound 16, 5-(5-((1R,3r,5S,6r)-3-(4-ethylpiperazin-1-yl)bicyclo[3.1.0]hexan-6-yl)-1-isopropyl-1H-pyrazol-3-yl)-3-(trifluoromethyl)pyridin-2-amine] | 9.1 nM
9 | CCN1CCN([C@@H]2C[C@@H]3[C@H](C2)[C@H]3c2cc(-c3cnc(N)c(C(F)(F)F)c3)nn2C(C)C)CC1 [compound 17, 5-(5-((1R,3s,5S,6r)-3-(4-ethylpiperazin-1-yl)bicyclo[3.1.0]hexan-6-yl)-1-isopropyl-1H-pyrazol-3-yl)-3-(trifluoromethyl)pyridin-2-amine] | 2.92 nM
10 | CC(C)n1nc(-c2cnc(N)c(OC(F)(F)F)c2)cc1[C@H]1[C@@H]2C[C@@H](N(C)CC3COC3)C[C@@H]21 [compound 18, 5-(1-isopropyl-5-((1R,3s,5S,6r)-3-(methyl(oxetan-3-ylmethyl)amino)bicyclo[3.1.0]hexan-6-yl)-1H-pyrazol-3-yl)-3-(trifluoromethoxy) pyridin-2-amine] | 3.81 nM
11 | CC(C)n1nc(-c2cnc(N)c(OC(F)(F)F)c2)cc1[C@H]1[C@@H]2C[C@H](N(C)CC3COC3)C[C@@H]21 [compound 19, 5-(1-isopropyl-5-((1R,3r,5S,6r)-3-(methyl(oxetan-3-ylmethyl)amino)bicyclo[3.1.0]hexan-6-yl)-1H-pyrazol-3-yl)-3-(trifluoro-methoxy)pyridin-2-amine] | 2.97 nM
12 | CC(C)n1nc(-c2cnc(N)c(C(F)(F)F)c2)cc1[C@H]1[C@@H]2C[C@H](N(C)CC3COC3)C[C@@H]21 [compound 20, 5-(1-isopropyl-5-((1R,3r,5S,6r)-3-(methyl(oxetan-3-ylmethyl)amino)bicyclo[3.1.0]hexan-6-yl)-1H-pyrazol-3-yl)-3-(trifluoro-methyl)pyridin-2-amine] | 4.39 nM
13 | CC(C)n1nc(-c2cnc(N)c(C(F)(F)F)c2)cc1[C@H]1[C@@H]2C[C@@H](N(C)CC3COC3)C[C@@H]21 [compound 21, 5-(1-isopropyl-5-((1R,3s,5S,6r)-3-(methyl(oxetan-3-ylmethyl)amino)bicyclo[3.1.0]hexan-6-yl)-1H-pyrazol-3-yl)-3-(trifluoromethyl) pyridin-2-amine] | 4.2 nM
14 | CO[C@@H]1CCN([C@H]2C[C@@H]3[C@H](C2)[C@H]3c2cc(-c3cnc(N)c(OC(F)(F)F)c3)nn2C(C)C)C1 [compound 22, 5-(1-isopropyl-5-((1R,3r,5S,6R)-3-((R)-3-methoxypyrrolidin-1-yl)bicyclo[3.1.0]hexan-6-yl)-1H-pyrazol-3-yl)-3-(trifluoro-methoxy)pyridin-2-amine] | 1.57 nM
15 | CO[C@H]1CCN([C@H]2C[C@@H]3[C@H](C2)[C@H]3c2cc(-c3cnc(N)c(OC(F)(F)F)c3)nn2C(C)C)C1 [compound 23, 5-(1-isopropyl-5-((1R,3r,5S,6S)-3-((S)-3-methoxypyrrolidin-1-yl)bicyclo[3.1.0]hexan-6-yl)-1H-pyrazol-3-yl)-3-(trifluoro-methoxy)pyridin-2-amine] | 0.98 nM
16 | CC(C)n1nc(-c2cnc3ccn([C@@H](C)c4ccccn4)c3c2)cc1[C@H]1[C@@H]2C[C@@H](N3CCOCC3)C[C@@H]21 [compound 24, 4-((1R,3R,5S,6r)-6-(1-isopropyl-3-(1-((S)-1-(pyridin-2-yl)ethyl)-1H-pyrrolo[3,2-b]pyridin-6-yl)-1H-pyrazol-5-yl)bicyclo[3.1.0]hexan-3-yl)morpholine] | 0.34 nM
17 | CC(C)n1nc(-c2cnc3ccn([C@H](C)c4ccccn4)c3c2)cc1[C@H]1[C@@H]2C[C@@H](N3CCOCC3)C[C@@H]21 [compound 25, 4-((1R,3S,5S,6r)-6-(1-isopropyl-3-(1-((R)-1-(pyridin-2-yl)ethyl)-1H-pyrrolo[3,2-b]pyridin-6-yl)-1H-pyrazol-5-yl)bicyclo[3.1.0]hexan-3-yl)morpholine] | 70.6 nM
18 | CC(C)n1nc(-c2cnc3ccn([C@H](C)c4ccccn4)c3c2)cc1[C@H]1[C@@H]2C[C@H](N3CCOCC3)C[C@@H]21 [compound 26, 4-((1R,3R,5S,6r)-6-(1-isopropyl-3-(1-((R)-1-(pyridin-2-yl)ethyl)-1H-pyrrolo[3,2-b]pyridin-6-yl)-1H-pyrazol-5-yl)bicyclo[3.1.0]hexan-3-yl)morpholine] | 75.6 nM
19 | CC(C)n1nc(-c2cnc3ccn([C@@H](C)c4ccccn4)c3c2)cc1[C@H]1[C@@H]2C[C@H](N3CCOCC3)C[C@@H]21 [compound 27, 4-((1R,3S,5S,6r)-6-(1-isopropyl-3-(1-((S)-1-(pyridin-2-yl)ethyl)-1H-pyrrolo[3,2-b]pyridin-6-yl)-1H-pyrazol-5-yl)bicyclo[3.1.0]hexan-3-yl)morpholine] | 0.14 nM
20 | CC(C)n1nc(-c2cnc(N)c(OC(F)(F)F)c2)cc1[C@H]1[C@@H]2C[C@@H](N3CC(F)C3)C[C@@H]21 [compound 28, 5-(5-((1R,3s,5S,6r)-3-(3-fluoro-azetidin-1-yl)bicyclo[3.1.0]hexan-6-yl)-1-isopropyl-1H-pyrazol-3-yl)-3-(trifluoromethoxy) pyridin-2-amine] | 2.54 nM
21 | CC(C)n1nc(-c2cnc(N)c(OC(F)(F)F)c2)cc1[C@H]1[C@@H]2C[C@H](N3CC(F)C3)C[C@@H]21 [compound 29, 5-(5-((1R,3r,5S,6r)-3-(3-fluoro-azetidin-1-yl)bicyclo[3.1.0]hexan-6-yl)-1-isopropyl-1H-pyrazol-3-yl)-3-(trifluoromethoxy) pyridin-2-amine] | 2.83 nM
